# Data taken from publication PMC11123961, “Design, Synthesis, and Biological Evaluation of the Quorum-Sensing Inhibitors of Pseudomonas aeruginosa PAO1” (Molecules, 2024).
# Like-named read-outs stand apart in the source and are kept apart here.
# Tests used:
# C. violaceum CV026 QS [1] = system: C. violaceum CV026 QS; set-up: method as in earlier work; settings: lead compound, value of Zhao; cited from earlier work
# C. violaceum CV026 QS [2] = experiment: Half-maximal inhibitory concentration against C. violaceum CV026 QS (suppression of violacein production); assay type: cell-based; settings: Chromobacterium violaceum; C6-HSL-induced violacein production, 12 h; mean ± SD of three independent tests; read-out: IC50, anti-CV026 QS activity
# Excerpt: In the exploration of the QS inhibitions, C. violaceum CV026, a mini-T5 mutant of C. violaceum ATCC31532, is frequently employed as a biosensor strain. Because C. violaceum CV026 lacks the CviI gene, which directs the synthesis of AHLs, it is unable to manufacture violacein on its own. The violacein reaction can be induced in C. violaceum CV026 by adding exogenous C6-HSL [27]. As a result, the violacein reaction in C. violaceum CV026 can be used to assess the compounds’ suppression of QS, as used in this investigation.
# 3.2.2. The Half-Maximal Inhibitory Concentration (IC50) of Compounds against C. violaceum CV026 QS [36]
# Subsequently, the log phase of C. violaceum CV026 was placed in a 12-well plate (2 mL/well) after being diluted 10-fold with fresh LB medium. The experimental group received 15 μL of the diluted inducer C6-HSL (0.125 mM), and 8 μL of each dilution gradient compound was added to each well, while the positive control group received 8 μL of C10-HSL, and the blank control group received 8 μL of LB medium. The plates were incubated at 30 °C and 130 rpm for 12 h. After centrifuging 1 mL of the culture for 10 min at 11,255 g, the supernatant was discarded. After dissolving the violacein with 500 μL of DMSO, the mixture was centrifuged once more at 11,255 g for 10 min. In order to measure the absorbance at 585 nm, 200 μL of the upper pigment was added to a 96-well plate. The IC50 was calculated using GraphPad Prism 5 according to the formula (absorbance at 585 nm of the test concentration/the absorbance of the control at 585 nm × 100%).
# [3] = system: P. aeruginosa PAO1 biofilms; experiment: Biofilm quantification, crystal violet assay; assay type: cell-based, Pseudomonas aeruginosa; settings: for inhibition at 20.3125 µM / inhibition at 40.625 µM / inhibition at 81.25 µM / inhibition at 162.5 µM / inhibition at 325 µM: Pseudomonas aeruginosa, PAO1, 20 h, read-out: Inhibition ratio of biofilm; for inhibition at 20.3125 µM: concentration 20.3125 (unit not given in Table S1; μM in method); for inhibition at 40.625 µM: concentration 40.625 (unit not given in Table S1; μM in method); for inhibition at 81.25 µM: concentration 81.25 (unit not given in Table S1; μM in method); for inhibition at 162.5 µM: concentration 162.5 (unit not given in Table S1; μM in method); for inhibition at 325 µM: concentration 325 (unit not given in Table S1; μM in method)
# Procedure: 3.2.3. Biofilm Quantification Assays
# The crystal violet assay was used to quantitatively analyze the biofilm, as previously described. P. aeruginosa PAO1 log phase was diluted 100 times with fresh LB medium and incubated for 3.5 h at 37 °C and 150 rpm. After that, the P. aeruginosa PAO1 bacterial culture was added to the 96-well plate. P. aeruginosa PAO1 bacterial culture in 90 μL was added to the experimental group, and 10 μL of the test compound at a final concentration of 325 μM, 162.5 μM, 81.25 μM, 40 μM, 20 μM, and 10 μM. Each well received 100 μL of bacterial culture for the control group and 100 μL of fresh LB medium for the blank group. After 20 h of incubation at 37 °C, the bacterial culture was removed from the 96-well plate, and it was dried after three PBS washes. Each well received […] of 0.1% crystal violet (CV) for a 15 min staining period. Each well was washed three times with PBS after the CV was removed. Lastly, each well received 150 μL of 33% glacial acetic acid, and a Biotek multi-function microplate reader was used to measure the absorbance value at 595 nm. The biofilm inhibition rate was calculated as follows = (OD595 blank − OD595 sample)/OD595 blank × 100%.
# [4] = system: wildtype Caenorhabditis elegans N2 infected with P. aeruginosa PAO1; experiment: C. elegans survival assay; assay type: in vivo; settings: after 48 h; agent alone: Y-31 162.5 μM, Tob 0.25 μg/mL
# Excerpt: 3.2.7. C. elegans Survival Assay
# The negative control was the PGS agar plate coated with E. Coli OP50. Next, 50 wildtype C. elegans N2 strain-synchronized nematodes (L4 stage) were chosen and placed onto the plates. […] When the nematodes in the study were immobile, they were deemed dead. The number of nematodes that survived was tabulated to generate a survival curve.
# C. violaceum CV026 QS [5] = experiment: Half-maximal inhibitory concentration against C. violaceum CV026 QS (suppression of violacein production); assay type: cell-based; settings: qualitative preliminary screening
Compound,IC50 (C. violaceum CV026 QS [2]),inhibition at 20.3125 µM [3],inhibition at 40.625 µM [3],inhibition at 81.25 µM [3],inhibition at 162.5 µM [3],inhibition at 325 µM [3],C. violaceum CV026 QS inhibitory activity (first assessment) (C. violaceum CV026 QS [5]),other results
O=C(NN1CCOC1=O)c1ccccc1 [AOZ-1],,,,,,,,IC50 (C. violaceum CV026 QS [1]): > 200 µM
"CCCCCCCCCC(=O)N[C@H]1CCOC1=O [C10-HSL, reference compound]",0.15 ± 0.024 µM,-4.35%,2.25%,0.25%,6.3%,-18.8%,,Effect on the biofilm of P. aeruginosa PAO1 ([3]; crystal violet assay): no significant inhibitory effect
"NC[C@H]1O[C@H](O[C@H]2[C@H](O)[C@@H](O[C@H]3O[C@H](CO)[C@@H](O)[C@H](N)[C@H]3O)[C@H](N)C[C@@H]2N)[C@H](N)C[C@@H]1O [Tob, Tobramycin, reference compound]",,,,,,,,Improvement of the survival rate of infected nematodes (average) [4]: 63.33%
O=C(CCCOc1ccc2ccncc2c1)NN1CCOC1=O [Y-1],199 ± 13.9 µM,,,,,,inhibited,
COc1ccc(OCCCC(=O)NN2CCOC2=O)cc1 [Y-3],208 ± 7.26 µM,,,,,,inhibited,
O=C(CCCCOc1ccc(Br)cc1)NN1CCCOC1=O [Y-4],> 260 µM,,,,,,,
O=C(CCCOc1ccc(-c2ccccc2)cc1)NN1CCOC1=O [Y-5],125 ± 16.1 µM,,,,,,,
O=C(CCCOc1ccc(Br)cc1)NN1CCCOC1=O [Y-6],> 260 µM,,,,,,,
O=C(CCCOc1ccc(Br)nc1)NN1CCOC1=O [Y-9],168 ± 7.28 µM,,,,,,inhibited,
O=C(CCCOc1cnc(Br)cn1)NN1CCOC1=O [Y-15],91.3 ± 3.02 µM,6.73%,27%,36.8%,33.9%,32.1%,inhibited,
CCCCc1ccc(OCCCC(=O)NN2CCOC2=O)cc1 [Y-17],> 260 µM,,,,,,,
CC(C)(C)Oc1ccc(OCCCC(=O)NN2CCOC2=O)cc1 [Y-18],> 260 µM,,,,,,,
CCc1ccc(OCCCC(=O)NN2CCOC2=O)cc1 [Y-19],153 ± 8.78 µM,,,,,,,
O=C(CCCOc1ccc(C(F)(F)F)cc1)NN1CCOC1=O [Y-25],62.6 ± 3.27 µM,18.8%,32.2%,33.4%,39.9%,32.2%,inhibited,
O=C(CCCOc1ccc(I)cc1)NN1CCOC1=O [Y-26],27.6 ± 1.25 µM,2.17%,33.5%,42.5%,44.6%,38.7%,inhibited,
O=C(CCCOc1ccccc1)NN1CCOC1=O [Y-28],232 ± 5.84 µM,,,,,,inhibited,
O=C(CCCOc1ccc2ccccc2c1)NN1CCOC1=O [Y-29],26.1 ± 2.52 µM,9.51%,32.7%,34.7%,40.9%,9.07%,inhibited,
O=C(CCCOc1cccc2ccccc12)NN1CCOC1=O [Y-37],102 ± 4.36 µM,15.3%,35.1%,36.4%,28.7%,18.2%,,
CC(C)c1ccc(OCCCC(=O)NN2CCOC2=O)cc1 [Y-38],> 260 µM,,,,,,,
O=C(CCCSc1ccc(Br)cc1)NN1CCOC1=O [Y-39],47.4 ± 1.74 µM,12.9%,23.4%,28.4%,24.9%,21.2%,,
Cc1ccc(OCCCC(=O)NN2CCOC2=O)c(C)c1 [Y-40],180.5 ± 1.77 µM,,,,,,,
